{"source": "patent US7312339B2", "about": "“Polyene oxazoles and processes for their preparation” (Thallion Pharmaceuticals Inc., priority 2003, dated 2007)", "key": {"[1]": {"system": "HCT116 (colon/human)", "assay": "In vitro cytotoxicity (MTT cell survival), HCT116", "assay_type": "cell-based", "conditions": "for In Vitro Cytotoxicity Data (Log M): HCT116, 96 h exposure; for IC50: Homo sapiens, HCT-116, HCT116, 96 h exposure, mean from 3 independent experiments", "procedure": "(§1) Cells were passaged two to three times per week. Cellular viability was examined by staining with trypan blue and only flasks where cell viability was >95% were used to determine cytotxicity.\n(§2) Exponentially growing cells (1-3×10^3 cells per 100 μl) were seeded in 96-well plates and incubated for 16 h. Cells were then exposed continuously to various concentrations of compounds of Formula I in serum-supplemented medium. Cell survival was evaluated 96 h later by replacing the culture media with 150 μl fresh medium containing 10 mM 4-(2-hydroxyethyl)-1-piperazineethanesulfonic acid buffer, pH 7.4. Next, 50 μl of 2.5 mg/ml of 3-(4,5-dimethylthiazo-2-yl)-2,5-diphenyltetrazolium bromide (MTT; Sigma, St. Louis, Mo.) in phosphate buffer solution, pH 7.4, was added. After 3-4 h of incubation at 37° C., the medium and MTT was removed, and 200 μl of dimethylsulfoxide was added to dissolve the precipitate of reduced MTT followed by addition of 25 μl glycine buffer (0.1 M glycine plus 0.1 M NaCl, pH 10.5). The absorbance was determined at 570 nm with a microplate reader (BIORAD). Cell survival was estimated as % of cells treated with the vehicle alone."}, "[2]": {"system": "EKVX (lung/human)", "assay": "In vitro cytotoxicity (MTT cell survival), EKVX", "assay_type": "cell-based", "conditions": "96 h exposure; for IC50: Homo sapiens", "procedure": "as §1, §2"}, "[3]": {"assay": "In vitro cytotoxicity (MTT cell survival), HRE", "assay_type": "cell-based, human", "conditions": "human, HRE normal renal cells, 96 h exposure", "procedure": "as §1, §2"}, "[4]": {"system": "HRE (renal/normal, human)", "assay": "In vitro cytotoxicity (MTT cell survival), HRE", "assay_type": "cell-based", "conditions": "HRE normal renal cells, 96 h exposure", "procedure": "as §1, §2"}, "[5]": {"system": "T24 (bladder/human)", "assay": "In vitro cytotoxicity (MTT cell survival), T24", "assay_type": "cell-based", "conditions": "T24, 96 h exposure; for IC50: Homo sapiens", "procedure": "as §1, §2"}, "[6]": {"system": "MDA-MD-231 (breast/human)", "assay": "In vitro cytotoxicity (MTT cell survival), MDA-MD-231", "assay_type": "cell-based", "conditions": "MDA-MD-231, 96 h exposure; for IC50: Homo sapiens, mean from 3 independent experiments", "procedure": "as §1, §2"}, "[7]": {"system": "A498 (renal/human)", "assay": "In vitro cytotoxicity (MTT cell survival), A498", "assay_type": "cell-based", "conditions": "A498, 96 h exposure; for IC50: Homo sapiens, mean from 3 independent experiments", "procedure": "as §1, §2"}, "[8]": {"system": "SF-295 (glioblastoma/human)", "assay": "In vitro cytotoxicity (MTT cell survival), SF-295", "assay_type": "cell-based", "conditions": "SF-295, 96 h exposure; for IC50: Homo sapiens", "procedure": "as §1, §2"}, "[9]": {"system": "B16 (melanoma/mouse)", "assay": "In vitro cytotoxicity (MTT cell survival), B16", "assay_type": "cell-based", "conditions": "B16, 96 h exposure; for IC50: Mus musculus", "procedure": "as §1, §2"}, "[10]": {"system": "P388 (leukemia/mouse)", "assay": "In vitro cytotoxicity (MTT cell survival), P388", "assay_type": "cell-based", "conditions": "P388, 96 h exposure; for IC50: Mus musculus", "procedure": "as §1, §2"}, "[11]": {"system": "PC3 (prostate/human)", "assay": "In vitro cytotoxicity (MTT cell survival), PC3", "assay_type": "cell-based", "conditions": "PC3, 96 h exposure; for IC50: Homo sapiens, mean from 3 independent experiments", "procedure": "as §1, §2"}}, "data": [{"smiles": "COC(=O)C(C(C)OC)N(C)C(=O)C1(N(O)C(=O)/C=C/C=C/C=C/C=C\\CNC(=O)C(C)(C)C(O)\\C(C)=C/C=C\\C=C\\Cc2cnco2)COCO1", "note": "(stereo not shown) [Compound 1]", "values": [{"measurement": "In Vitro Cytotoxicity Data (Log M)", "setting": "[1]", "result": "(Log −4.60 M) Log M"}, {"measurement": "IC50", "setting": "[1]", "result": 24.8, "unit": "µM"}, {"measurement": "In Vitro Cytotoxicity Data (Log M)", "setting": "[2]", "result": "(Log −4.42 M) Log M"}, {"measurement": "IC50", "setting": "[2]", "result": 37.4, "unit": "µM"}, {"measurement": "IC50 at 96 h", "setting": "[3]", "result": 8.8, "unit": "µM"}, {"measurement": "In Vitro Cytotoxicity Data (Log M)", "setting": "[4]", "result": "(Log −5.05 M) Log M"}, {"measurement": "IC50", "setting": "[5]", "result": 30.5, "unit": "µM"}, {"measurement": "In Vitro Cytotoxicity Data (Log M)", "setting": "[5]", "result": "(Log −4.51 M) Log M"}, {"measurement": "IC50", "setting": "[6]", "result": 12.9, "unit": "µM"}, {"measurement": "In Vitro Cytotoxicity Data (Log M)", "setting": "[6]", "result": "(Log −4.88 M) Log M"}, {"measurement": "In Vitro Cytotoxicity Data (Log M)", "setting": "[7]", "result": "(Log −4.78 M) Log M"}, {"measurement": "IC50", "setting": "[7]", "result": 15.6, "unit": "µM"}, {"measurement": "IC50", "setting": "[8]", "result": 27.1, "unit": "µM"}, {"measurement": "In Vitro Cytotoxicity Data (Log M)", "setting": "[8]", "result": "(Log −4.56 M) Log M"}, {"measurement": "In Vitro Cytotoxicity Data (Log M)", "setting": "[9]", "result": "(Log −4.34 M) Log M"}, {"measurement": "IC50", "setting": "[9]", "result": 44.8, "unit": "µM"}, {"measurement": "IC50", "setting": "[10]", "result": 6.3, "unit": "µM"}, {"measurement": "In Vitro Cytotoxicity Data (Log M)", "setting": "[10]", "result": "(Log −5.19 M) Log M"}, {"measurement": "IC50", "setting": "[11]", "result": 20.7, "unit": "µM"}, {"measurement": "In Vitro Cytotoxicity Data (Log M)", "setting": "[11]", "result": "(Log −4.69 M) Log M"}]}, {"smiles": "COC(=O)C(C(C)OC)N(C)C(=O)C1(N(O)C(=O)/C=C/C=C/C=C/C=C\\CNC(=O)C(C)(C)C(O)\\C(C)=C/C=C\\C=C\\Cc2cnc(C)o2)COCO1", "note": "(stereo not shown) [Compound 2]", "values": [{"measurement": "In Vitro Cytotoxicity Data (Log M)", "setting": "[1]", "result": "(Log −4.56 M) Log M"}, {"measurement": "IC50", "setting": "[1]", "result": 27.5, "unit": "µM"}, {"measurement": "In Vitro Cytotoxicity Data (Log M)", "setting": "[2]", "result": "(Log −4.62 M) Log M"}, {"measurement": "IC50", "setting": "[2]", "result": 23.9, "unit": "µM"}, {"measurement": "IC50 at 96 h", "setting": "[3]", "result": 20.2, "unit": "µM"}, {"measurement": "In Vitro Cytotoxicity Data (Log M)", "setting": "[4]", "result": "(Log −4.69 M) Log M"}, {"measurement": "IC50", "setting": "[5]", "result": 18.9, "unit": "µM"}, {"measurement": "In Vitro Cytotoxicity Data (Log M)", "setting": "[5]", "result": "(Log −4.72 M) Log M"}, {"measurement": "IC50", "setting": "[6]", "result": 13.2, "unit": "µM"}, {"measurement": "In Vitro Cytotoxicity Data (Log M)", "setting": "[6]", "result": "(Log −4.88 M) Log M"}, {"measurement": "In Vitro Cytotoxicity Data (Log M)", "setting": "[7]", "result": "(Log −4.88 M) Log M"}, {"measurement": "IC50", "setting": "[7]", "result": 13.1, "unit": "µM"}, {"measurement": "IC50", "setting": "[8]", "result": 17.5, "unit": "µM"}, {"measurement": "In Vitro Cytotoxicity Data (Log M)", "setting": "[8]", "result": "(Log −4.75 M) Log M"}, {"measurement": "In Vitro Cytotoxicity Data (Log M)", "setting": "[9]", "result": "(Log −4.34 M) Log M"}, {"measurement": "IC50", "setting": "[9]", "result": 45.5, "unit": "µM"}, {"measurement": "IC50", "setting": "[10]", "result": 8.1, "unit": "µM"}, {"measurement": "In Vitro Cytotoxicity Data (Log M)", "setting": "[10]", "result": "(Log −5.05 M) Log M"}, {"measurement": "IC50", "setting": "[11]", "result": 20.7, "unit": "µM"}, {"measurement": "In Vitro Cytotoxicity Data (Log M)", "setting": "[11]", "result": "(Log −4.67 M) Log M"}]}]}
